Measured values taken from patent US11109593B2, “Isoxazolin-5-one derivative and herbicide containing same as active ingredient” (HOKKO CHEMICAL INDUSTRY CO., LTD., priority 2017, dated 2021).

Tested on: Echinochloa crus-galli
Assay: Test Example 1: herbicidal effect test by treatment of rice paddy soil (immediately after seeding)
Format: in vivo
Conditions: 120 g/10a active ingredient, dry weight vs untreated area, 14 days after treatment
Procedure, shortened: (§1)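 Flooded paddy pot test in a glass greenhouse: emulsion diluted in water, dropped at 120 g a.i. per 10 ares just after sowing, water depth kept about 3 cm. Dry-weight reduction relative to untreated plants is scored at 14 days.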

SMILES	Herbicidal rate (%) Echinochloa crus-galli
Cc1c(Cc2ccccc2N(C(=O)CC(C)C)S(=O)(=O)C(F)(F)F)c(=O)on1CC(C)C [Compound 1-354]	100%
Cc1c(Cc2ccccc2N(S(=O)(=O)C(F)(F)F)S(=O)(=O)C(F)(F)F)c(=O)on1C(C)C1CC1 (centres unmarked) [Compound 1-992]	100%

Tested on: Scirpus juncoides
Assay: as above
Format: in vivo
Conditions: 120 g/10a active ingredient, dry weight vs untreated area, 14 days after treatment
Procedure, shortened: as §1

SMILES	Herbicidal rate (%) Scirpus juncoides
Cc1c(Cc2ccccc2N(C(=O)CC(C)C)S(=O)(=O)C(F)(F)F)c(=O)on1CC(C)C [Compound 1-354]	90%
Cc1c(Cc2ccccc2N(S(=O)(=O)C(F)(F)F)S(=O)(=O)C(F)(F)F)c(=O)on1C(C)C1CC1 (centres unmarked) [Compound 1-992]	100%

Tested on: broad leaf weeds (Lindernia pyxidaria and Monochoria vaginalis)
Assay: as above
Format: in vivo
Conditions: Lindernia pyxidaria, 120 g/10a active ingredient, dry weight vs untreated area, 14 days after treatment
Procedure, shortened: as §1

SMILES	Herbicidal rate (%) Lindernia pyxidaria
Cc1c(Cc2ccccc2N(C(=O)CC(C)C)S(=O)(=O)C(F)(F)F)c(=O)on1CC(C)C [Compound 1-354]	90%
Cc1c(Cc2ccccc2N(S(=O)(=O)C(F)(F)F)S(=O)(=O)C(F)(F)F)c(=O)on1C(C)C1CC1 (centres unmarked) [Compound 1-992]	90%

Same assay, conditions: Monochoria vaginalis, 120 g/10a active ingredient, dry weight vs untreated area, 14 days after treatment

SMILES	Herbicidal rate (%) Monochoria vaginalis
Cc1c(Cc2ccccc2N(C(=O)CC(C)C)S(=O)(=O)C(F)(F)F)c(=O)on1CC(C)C [Compound 1-354]	90%
Cc1c(Cc2ccccc2N(S(=O)(=O)C(F)(F)F)S(=O)(=O)C(F)(F)F)c(=O)on1C(C)C1CC1 (centres unmarked) [Compound 1-992]	100%

Tested on: Echinochloa crus-galli
Assay: Test Example 2: herbicidal effect test by treatment during growing period in paddy rice cultivation (seven days after seeding)
Format: in vivo
Conditions: 120 g/10a active ingredient, assessed 14 days after treatment, dry weight vs untreated area
Procedure, shortened: (§2)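 Sow 30 seeds per species (0–1 cm) into puddled, fertilized paddy soil; keep flooded ~3 cm in greenhouse. Day 7 after seeding: drop water-diluted emulsion, 120 g a.i./10 ares. Harvest 14 d post-treatment; compare dry weight with untreated pots (duplicate).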

SMILES	Herbicidal rate (%) Echinochloa crus-galli
Cc1c(Cc2ccccc2N(C(=O)CC(C)C)S(=O)(=O)C(F)(F)F)c(=O)on1CC(C)C [Compound 1-354]	100%
Cc1c(Cc2ccccc2N(S(=O)(=O)C(F)(F)F)S(=O)(=O)C(F)(F)F)c(=O)on1C(C)C1CC1 (centres unmarked) [Compound 1-992]	90%

Tested on: Scirpus juncoides
Assay: as above
Format: in vivo
Conditions: 120 g/10a active ingredient, assessed 14 days after treatment, dry weight vs untreated area
Procedure, shortened: as §2

SMILES	Herbicidal rate (%) Scirpus juncoides
Cc1c(Cc2ccccc2N(C(=O)CC(C)C)S(=O)(=O)C(F)(F)F)c(=O)on1CC(C)C [Compound 1-354]	90%
Cc1c(Cc2ccccc2N(S(=O)(=O)C(F)(F)F)S(=O)(=O)C(F)(F)F)c(=O)on1C(C)C1CC1 (centres unmarked) [Compound 1-992]	80%

Tested on: broad leaf weeds (Lindernia pyxidaria and Monochoria vaginalis)
Assay: as above
Format: in vivo
Conditions: Lindernia pyxidaria, 120 g/10a active ingredient, assessed 14 days after treatment, dry weight vs untreated area
Procedure, shortened: as §2

SMILES	Herbicidal rate (%) Lindernia pyxidaria
Cc1c(Cc2ccccc2N(C(=O)CC(C)C)S(=O)(=O)C(F)(F)F)c(=O)on1CC(C)C [Compound 1-354]	70%
Cc1c(Cc2ccccc2N(S(=O)(=O)C(F)(F)F)S(=O)(=O)C(F)(F)F)c(=O)on1C(C)C1CC1 (centres unmarked) [Compound 1-992]	50%

Same assay, conditions: Monochoria vaginalis, 120 g/10a active ingredient, assessed 14 days after treatment, dry weight vs untreated area

SMILES	Herbicidal rate (%) Monochoria vaginalis
Cc1c(Cc2ccccc2N(C(=O)CC(C)C)S(=O)(=O)C(F)(F)F)c(=O)on1CC(C)C [Compound 1-354]	90%
Cc1c(Cc2ccccc2N(S(=O)(=O)C(F)(F)F)S(=O)(=O)C(F)(F)F)c(=O)on1C(C)C1CC1 (centres unmarked) [Compound 1-992]	90%

Tested on: Amaranthus viridis
Assay: Test Example 3: herbicidal effect test by treatment of dry field farming soil (one day after seeding)
Format: in vivo
Conditions: 120 g/10a active ingredient, evaluated 14 days after treatment
Procedure, shortened: (§3)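 Weeds were seeded into the upper soil layer of alluvial field soil and, one day afterwards, the soil surface was sprayed with water-diluted emulsion delivering 120 g active ingredient per 10 ares. Mean plant dry weight relative to untreated pots after 14 days gave the herbicidal rate, tested in duplicate.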

SMILES	herbicidal rate, Amaranthus viridis
Cc1c(Cc2ccccc2N(C(=O)CC(C)C)S(=O)(=O)C(F)(F)F)c(=O)on1CC(C)C [Compound 1-354]	90%
Cc1c(Cc2ccccc2N(S(=O)(=O)C(F)(F)F)S(=O)(=O)C(F)(F)F)c(=O)on1C(C)C1CC1 (centres unmarked) [Compound 1-992]	40%

Tested on: Chenopodium album
Assay: as above
Format: in vivo
Conditions: 120 g/10a active ingredient, evaluated 14 days after treatment
Procedure, shortened: as §3

SMILES	herbicidal rate, Chenopodium album
Cc1c(Cc2ccccc2N(C(=O)CC(C)C)S(=O)(=O)C(F)(F)F)c(=O)on1CC(C)C [Compound 1-354]	90%
Cc1c(Cc2ccccc2N(S(=O)(=O)C(F)(F)F)S(=O)(=O)C(F)(F)F)c(=O)on1C(C)C1CC1 (centres unmarked) [Compound 1-992]	40%

Tested on: Echinochloa crus-galli
Assay: as above
Format: in vivo
Conditions: 120 g/10a active ingredient, evaluated 14 days after treatment
Procedure, shortened: as §3

SMILES	herbicidal rate, Echinochloa crus-galli
Cc1c(Cc2ccccc2N(C(=O)CC(C)C)S(=O)(=O)C(F)(F)F)c(=O)on1CC(C)C [Compound 1-354]	90%
Cc1c(Cc2ccccc2N(S(=O)(=O)C(F)(F)F)S(=O)(=O)C(F)(F)F)c(=O)on1C(C)C1CC1 (centres unmarked) [Compound 1-992]	90%

Tested on: southern crabgrass
Assay: as above
Format: in vivo
Conditions: 120 g/10a active ingredient, evaluated 14 days after treatment
Procedure, shortened: as §3

SMILES	herbicidal rate, southern crabgrass
Cc1c(Cc2ccccc2N(C(=O)CC(C)C)S(=O)(=O)C(F)(F)F)c(=O)on1CC(C)C [Compound 1-354]	80%
Cc1c(Cc2ccccc2N(S(=O)(=O)C(F)(F)F)S(=O)(=O)C(F)(F)F)c(=O)on1C(C)C1CC1 (centres unmarked) [Compound 1-992]	90%

Tested on: Amaranthus viridis
Assay: Test Example 4: herbicidal effect test by treatment of leave and stem in dry field farming (seven days after seeding)
Format: in vivo
Conditions: 120 g/10a active ingredient; emulsion sprayed seven days after seeding; evaluated 14 days after treatment
Procedure, shortened: (§4)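 Duplicate pots were scored 14 days post-spray by dry weight, herbicidal rate = {1 − treated/untreated average dry weight} × 100. The water-diluted emulsion, equivalent to 120 g active ingredient per 10 ares in 100 L, was applied seven days after sowing 20 seeds each into the upper 1 cm of alluvial soil.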

SMILES	herbicidal effect (herbicidal rate), Amaranthus viridis
Cc1c(Cc2ccccc2N(C(=O)CC(C)C)S(=O)(=O)C(F)(F)F)c(=O)on1CC(C)C [Compound 1-354]	40%
Cc1c(Cc2ccccc2N(S(=O)(=O)C(F)(F)F)S(=O)(=O)C(F)(F)F)c(=O)on1C(C)C1CC1 (centres unmarked) [Compound 1-992]	40%

Tested on: Chenopodium album
Assay: as above
Format: in vivo
Conditions: 120 g/10a active ingredient; emulsion sprayed seven days after seeding; evaluated 14 days after treatment
Procedure, shortened: as §4

SMILES	herbicidal effect (herbicidal rate), Chenopodium album
Cc1c(Cc2ccccc2N(C(=O)CC(C)C)S(=O)(=O)C(F)(F)F)c(=O)on1CC(C)C [Compound 1-354]	40%
Cc1c(Cc2ccccc2N(S(=O)(=O)C(F)(F)F)S(=O)(=O)C(F)(F)F)c(=O)on1C(C)C1CC1 (centres unmarked) [Compound 1-992]	40%

Tested on: Echinochloa crus-galli
Assay: as above
Format: in vivo
Conditions: 120 g/10a active ingredient; emulsion sprayed seven days after seeding; evaluated 14 days after treatment
Procedure, shortened: as §4

SMILES	herbicidal effect (herbicidal rate), Echinochloa crus-galli
Cc1c(Cc2ccccc2N(C(=O)CC(C)C)S(=O)(=O)C(F)(F)F)c(=O)on1CC(C)C [Compound 1-354]	80%
Cc1c(Cc2ccccc2N(S(=O)(=O)C(F)(F)F)S(=O)(=O)C(F)(F)F)c(=O)on1C(C)C1CC1 (centres unmarked) [Compound 1-992]	90%

Tested on: southern crabgrass
Assay: as above
Format: in vivo
Conditions: 120 g/10a active ingredient; emulsion sprayed seven days after seeding; evaluated 14 days after treatment
Procedure, shortened: as §4

SMILES	herbicidal effect (herbicidal rate), southern crabgrass
Cc1c(Cc2ccccc2N(C(=O)CC(C)C)S(=O)(=O)C(F)(F)F)c(=O)on1CC(C)C [Compound 1-354]	60%
Cc1c(Cc2ccccc2N(S(=O)(=O)C(F)(F)F)S(=O)(=O)C(F)(F)F)c(=O)on1C(C)C1CC1 (centres unmarked) [Compound 1-992]	50%
